Results from patent US5227153A, “Use of 4-(2-oxo-3-bornylidenemethyl)benzenesulfphonic acid or its salts for the protection of hair against environmental attacking agents, and in particular against light, and process for the protection of hair using this compound” (L'Oreal, priority 1988, dated 1993).

What was measured:
[1] = Mechanical properties of hair after exposure in natural light and artificial xenon light; details: natural light (sunny environment) and artificial light (xenon, SUNTEST HANAU)
Description: (§1) The 15% extension level is the weight to be applied to wet hair of given length to extend it by 15%. The higher the weight, the stronger and more elastic the hair.
It has been possible to reveal this property by exposure in natural light (sunny environment) and artificial light (xenon light emitter in a SUNTEST HANAU type accelerated aging apparatus).

[2] = 15% wet extension level of bleached hair after exposure to light (SUNTEST HANAU xenon apparatus)
Procedure: as §1
This composition is applied to bleached hair, then rinsed. The hair is then exposed to the Suntest by means of a "SUNTEST HANAU" apparatus for 120 hours. This apparatus consists of a xenon light emitter and a system of filters producing a radiation corresponding to a very large extend to solar radiation. The energy radiation is about 585 W/m^2 in the wavelength range between 300 and 830 nm (overall radiation).
After applying this foam to bleached hair three times and without consecutive rinsing, the hair is exposed to the Suntest as described in Example 1 for 180 hours.
Bleached hair treated with one application of this spray and not rinsed is then exposed to the Suntest under the conditions described in Example 1 for 120 hours.
Bleached hair treated with one application of this gel and not rinsed is then exposed to the Suntest under the conditions described in Example 1 for 120 hours.

CC12CCC(C(=Cc3ccc(S(=O)(=O)O)cc3)C1=O)C2(C)C (centres unmarked) [4-(2-oxo-3-bornylidenemethyl)benzenesulphonic acid]
preservation of the mechanical properties of hair from degradation by light [1]: can preserve the mechanical properties of hair | improvement in the mean value of the 15% wet extension level ([2]; rinse composition with 5 g per 100 g of the acid, rinsed, Suntest 120 hours, compared to same rinse containing no acid): very significantly improved | improvement in the mean value of the 15% wet extension level ([2]; styling foam with 1.5 g per 100 g of the acid (90 g composition + 10 g propellant), applied three times, not rinsed, Suntest 180 hours, compared to same foam containing no acid): appreciable improvement | improvement in the mean value of the 15% wet extension level ([2]; styling gel with 0.4 g per 100 g of the acid, one application, not rinsed, Suntest 120 hours, compared to same gel without the acid): appreciable improvement | improvement in the mean value of the 15% wet extension level ([2]; styling spray with 1 g per 100 g of the acid, one application, not rinsed, Suntest 120 hours, compared to same spray containing no acid): significant improvement
